Test results as given in PubChem BioAssay AID1963835 (Molecular Pharmacology Branch, DTP, NCI, 2024).

Tested on: 699152-130-R-J1-PDC complex spheroid viability
Experiment: Anticancer human tumor 699152-130-R-J1-PDC patient-derived pancreatic carcinoma cell line growth inhibition [POLQ]
Details: for IC50: curve of first compound; for viability, T/C: stronger effect = lower value
Method: Multicellular complex tumor spheroid response to Polymerase (POL) inhibitors (novobiocin, ART-558, RP6685) in combination with a variety of drugs and investigational agents in selected tumor cell lines
The POL inhibitors (novobiocin, ART-558, and RP6685) were evaluated both individually and in combination with standard of care and investigational anticancer small molecules within a complex spheroid model of solid tumors. . Complex spheroids include a stromal component modeled by human endothelial cells (HUVEC) and fibroblasts modeled by human mesenchymal stem cells (MSCs). The concentration ranges selected for each drug and investigational agent were based upon clinically achievable concentrations if the clinical Cmax of the agent was known.
Compounds. The drugs and investigational agents: novobiocin (NSC847541), ART-558 (NSC835418), RP-6685 (NSC848927), peposertib (NSC802822), ceralasertib (NSC780249), elimusertib (NSC800525), camonsertib (NSC841442), AZD-1390 (NSC803789), olaparib (NSC753686), talazoparib (NSC767125), rucaparib (NSC756644), sotorasib (NSC818433), MRTX-1133 (NSC836407), SN-38 (NSC673596), topotecan (NSC609699), epotoside (NSC141540), doxorubicin (NSC123127), gemcitabine (NSC613327), 5-fluorouracil (NSC19893), paclitaxel (NSC125973), vemurafenib (NSC761431), MSA-2 (NSC828583), SN-011 (NSC837082), adavosertib (NSC754352), prexasertib (NSC758257), carboplatin (NSC241240) and oxaliplatin (NSC266046), were obtained from the National Cancer Institute (NCI) Developmental Therapeutics Program Chemical Repository (21). The FDA-approved anticancer drug set is available from the Developmental Therapeutics Program at https://dtp.cancer.gov/organization/dscb/obtaining/. […] The stock solutions were prepared in dimethyl sulfoxide (DMSO, Sigma-Aldrich, St. Louis, MO, cat. D2650), except for the platinum compounds which were prepared in saline (Quality Biological, Gaithersburg, MD, cat. 114-055-101), at 800-fold the tested concentration and stored at -70 degrees C prior to their use. All drugs and investigational agents were tested over a range starting from a high concentration at or near the clinical Cmax and decreasing in half-log increments. If the clinical Cmax for an agent had not been determined, the highest concentration tested was 10 microM, except for SN-38, which was tested at a high concentration of 1 microM.
Cell Culture. All cells were maintained in an incubator at 37 degrees C and 5% CO2 with 95% humidity. The PDC lines were cultured according to standard operating procedures established by the NCI PDMR (https://pdmr.cancer.gov). Table 3 of the manuscript, lists the cell lines along with the number of the three cell types plated to form the mct-spheroids and media for tumor cell growth. After thawing, all PDC lines, except 997537-175-T-J1-PDC and 415267-285-R-J2-PDC, were cultured in Matrigel-coated flasks prepared with a working solution of 1X Ham's F-12 nutrient mix, without supplementation (Thermo Fisher Scientific, cat. 11765054), 100 U/mL penicillin-streptomycin (Thermo Fisher Scientific, cat. 15140122), and 2.5% Matrigel (Corning Inc., Corning, NY, cat. 354248) for the first three passages. The two PDC lines 997537-175-T-J1-PDC and 415267-285-R-J2-PDC were cultured on uncoated flasks. The 857933-349-R-J2-PDC line was cultured in 6C/Colon 1B media containing advanced DMEM/F-12 (Thermo Fisher Scientific, cat. 12634028), 10 mM HEPES (Thermo Fisher Scientific, cat. 15630080), 1X GlutaMAX supplement (Thermo Fisher Scientific, cat. 35050061), 0.1 mg/mL primocin (InvivoGen, San Diego, CA, cat. ant-pm-2), 10% defined fetal bovine serum, heat inactivated (HyClone Laboratories Inc., Logan, UT, cat. SH30070.03HI), 50% L-WRN conditioned media (ATCC, cat. CRL-3276), 1.25 mM N-Acetyl-L-cysteine (Sigma-Aldrich, cat. A9165), 10 mM nicotinamide (Sigma-Aldrich, cat. N0636), 1X B-27 supplement (Thermo Fisher Scientific, cat. 17504044), 1X N-2 supplement (Thermo Fisher Scientific, cat. […]

[1] = second compound 0.0316 µM, first compound 0.0316 µM
[2] = second compound 0.0316 µM, first compound 0.1 µM
[3] = second compound 0.0316 µM, first compound 0.316 µM
[4] = second compound 0.0316 µM, first compound 1 µM
[5] = second compound 0.0316 µM, first compound 3.16 µM
[6] = second compound 0.0316 µM, first compound 10 µM
[7] = second compound 0.1 µM, first compound 0.0316 µM
[8] = second compound 0.1 µM, first compound 0.1 µM
[9] = second compound 0.1 µM, first compound 0.316 µM
[10] = second compound 0.1 µM, first compound 1 µM
[11] = second compound 0.1 µM, first compound 3.16 µM
[12] = second compound 0.1 µM, first compound 10 µM
[13] = second compound 0.316 µM, first compound 0.0316 µM
[14] = second compound 0.316 µM, first compound 0.1 µM
[15] = second compound 0.316 µM, first compound 0.316 µM
[16] = second compound 0.316 µM, first compound 1 µM
[17] = second compound 0.316 µM, first compound 3.16 µM
[18] = second compound 0.316 µM, first compound 10 µM
[19] = second compound 1 µM, first compound 0.0316 µM
[20] = second compound 1 µM, first compound 0.1 µM
[21] = second compound 1 µM, first compound 0.316 µM
[22] = second compound 1 µM, first compound 1 µM
[23] = second compound 1 µM, first compound 3.16 µM
[24] = second compound 1 µM, first compound 10 µM
[25] = second compound 3.16 µM, first compound 0.0316 µM
[26] = second compound 3.16 µM, first compound 0.1 µM
[27] = second compound 3.16 µM, first compound 0.316 µM
[28] = second compound 3.16 µM, first compound 1 µM
[29] = second compound 3.16 µM, first compound 3.16 µM
[30] = second compound 3.16 µM, first compound 10 µM
[31] = second compound 10 µM, first compound 0.0316 µM
[32] = second compound 10 µM, first compound 0.1 µM
[33] = second compound 10 µM, first compound 0.316 µM
[34] = second compound 10 µM, first compound 1 µM
[35] = second compound 10 µM, first compound 3.16 µM
[36] = second compound 10 µM, first compound 10 µM
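Also: spheroids exposed to agents for 7 days before viability reading.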
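For viability, T/C in this document: percent of DMSO vehicle control viability so 100% = vehicle and 0% = no viable signal.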

## CC1COCCN1c1cc(-c2ccnn2C)c2ccnc(-c3ccn[nH]3)c2n1 (centres undefined) + COC1C(OC(N)=O)C(O)C(Oc2ccc3c(O)c(NC(=O)c4ccc(O)c(CC=C(C)C)c4)c(=O)oc3c2C)OC1(C)C
Second compound 0.0316 µM
  IC50: > 10 µM
Second compound 0.1 µM
  IC50: > 10 µM
Second compound 0.316 µM
  IC50: 8.54 µM
Second compound 1 µM
  IC50: > 10 µM
Second compound 3.16 µM
  IC50: > 10 µM
Second compound 10 µM
  IC50: > 10 µM
[1]
  viability, T/C: 94.7%
[2]
  viability, T/C: 101%
[3]
  viability, T/C: 71.5%
[4]
  viability, T/C: 57.2%
[5]
  viability, T/C: 58.6%
[6]
  viability, T/C: 53.3%
[7]
  viability, T/C: 104%
[8]
  viability, T/C: 97.1%
[9]
  viability, T/C: 71.1%
[10]
  viability, T/C: 57.1%
[11]
  viability, T/C: 57%
[12]
  viability, T/C: 47%
[13]
  viability, T/C: 104%
[14]
  viability, T/C: 99.9%
[15]
  viability, T/C: 66%
[16]
  viability, T/C: 56.4%
[17]
  viability, T/C: 63.1%
[18]
  viability, T/C: 47.5%
[19]
  viability, T/C: 99.2%
[20]
  viability, T/C: 93.3%
[21]
  viability, T/C: 67.3%
[22]
  viability, T/C: 64%
[23]
  viability, T/C: 55.5%
[24]
  viability, T/C: 51.5%
[25]
  viability, T/C: 96.3%
[26]
  viability, T/C: 85.3%
[27]
  viability, T/C: 76.8%
[28]
  viability, T/C: 56.1%
[29]
  viability, T/C: 56.1%
[30]
  viability, T/C: 52.6%
[31]
  viability, T/C: 102%
[32]
  viability, T/C: 80.8%
[33]
  viability, T/C: 65.6%
[34]
  viability, T/C: 56.5%
[35]
  viability, T/C: 58.3%
[36]
  viability, T/C: 50%

## CCCS(=O)(=O)Nc1ccc(F)c(C(=O)c2c[nH]c3ncc(-c4ccc(Cl)cc4)cc23)c1F + COC1C(OC(N)=O)C(O)C(Oc2ccc3c(O)c(NC(=O)c4ccc(O)c(CC=C(C)C)c4)c(=O)oc3c2C)OC1(C)C
Second compound 0.0316 µM
  IC50: > 10 µM
Second compound 0.1 µM
  IC50: > 10 µM
Second compound 0.316 µM
  IC50: > 10 µM
Second compound 1 µM
  IC50: > 10 µM
Second compound 3.16 µM
  IC50: > 10 µM
Second compound 10 µM
  IC50: > 10 µM
[1]
  viability, T/C: 117%
[2]
  viability, T/C: 105%
[3]
  viability, T/C: 125%
[4]
  viability, T/C: 151%
[5]
  viability, T/C: 172%
[6]
  viability, T/C: 64.7%
[7]
  viability, T/C: 115%
[8]
  viability, T/C: 109%
[9]
  viability, T/C: 126%
[10]
  viability, T/C: 159%
[11]
  viability, T/C: 191%
[12]
  viability, T/C: 64.1%
[13]
  viability, T/C: 108%
[14]
  viability, T/C: 112%
[15]
  viability, T/C: 134%
[16]
  viability, T/C: 149%
[17]
  viability, T/C: 177%
[18]
  viability, T/C: 59.9%
[19]
  viability, T/C: 105%
[20]
  viability, T/C: 115%
[21]
  viability, T/C: 126%
[22]
  viability, T/C: 147%
[23]
  viability, T/C: 171%
[24]
  viability, T/C: 64.1%
[25]
  viability, T/C: 105%
[26]
  viability, T/C: 121%
[27]
  viability, T/C: 124%
[28]
  viability, T/C: 145%
[29]
  viability, T/C: 281%
[30]
  viability, T/C: 68.3%
[31]
  viability, T/C: 107%
[32]
  viability, T/C: 114%
[33]
  viability, T/C: 123%
[34]
  viability, T/C: 148%
[35]
  viability, T/C: 175%
[36]
  viability, T/C: 66.4%
